Assay type in all cases: physicochemical
A short description of series [1]: Solubility screens for formulation strategies (lipidic, mesoporous silica, spray drying). The source says: The inventors investigated multiple strategies to make an effective solid formulation, including: • Conventional immediate release tablets. […] Screen of co-crystal former molecules was unsuccessful in identifying a suitable co-crystal form. • Lipid formulation: Compound 1 is a neutral molecule, and not lipophilic.

A short description of series [2]: physchem.
Series [3] is described as follows: physchem. The source holds these as a separate data set.
Series [4] is described as follows: log P of Compound 1.

Each structure is given as a SMILES string. Values after ≈ are worked out from the molar mass of the structure shown.

Usually pKa stands for the negative logarithm of the acid dissociation constant. A word on the solubility: it is the dissolved amount per volume that the medium holds. A low value points to a poorly soluble substance. Broadly, the logP is the decadic logarithm of the partition coefficient of the neutral form, usually between octanol and water. Read a low logP as lower lipophilicity.

With `Cc1cc(-c2nnc(N)nc2-c2ccc(F)cc2)cc(Cl)n1` [Compound 1, 6-(2-chloro-6-methylpyridin-4-yl)-5-(4-fluorophenyl)-1,2,4-triazin-3-amine], the “solubility in solvents suitable for spray drying” value in series [1] was “limited solubility”. The “solubility in suitable solvent for mesoporous silica formulation” value in series [1] is on record as “inadequate”. Further, the “solubility in suitable excipients for a lipidic formulation” value in series [1] (lipidic screen) is reported as “did not show significant solubility”. The pKa in series [2] is 1.78. In addition, the solubility in series [3] (fassif) is 5.8 µg/mL (≈ 18.4 µM); in series [3] (pH 1.2, simulated gastric fluid) it was 29.8 µg/mL (≈ 94.4 µM); in series [3] (pH 7, aqueous buffer), under 5 µg/mL. Besides, in series [4], the logP worked out at 2.8.

The values above are taken from patent publication US12502355B2, “Solid pharmaceutical formulations of 6-(2-chloro-6-methylpyridin-4-yl)-5-(4-fluorophenyl)-1,2,4-triazin-3-amine” (AstraZeneca AB, priority 2019, dated 2025).
